Results reported in ChEMBL document CHEMBL1201862, “PubChem BioAssay data set” (2004).
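1) Cells in 96-well plates. 2) Compound, 48 h, 5 concentrations. 3) Linear interpolation between surrounding doses. 4) Unreached endpoint = highest concentration. GI50 marks 50% less growth.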 The source made the active and inactive calls. No stated cut-off is given here; in the data, active = GI50 up to about 1.1 µM and inactive = higher.

Key:
Assay in all cases: growth of human tumour cells (NCI), 48 h
786-0 = tested on: 786-0
A498 = tested on: A498
A549 = tested on: A549
ACHN = tested on: ACHN
CAKI-1 = tested on: CAKI-1
CCRF-CEM = tested on: CCRF-CEM
COLO 205 = tested on: COLO 205
DLD-1 = tested on: DLD-1
DMS-114 = tested on: DMS-114
DMS-273 = tested on: DMS-273
EKVX = tested on: EKVX
HCT-116 = tested on: HCT-116
HL-60 = tested on: HL-60
HOP-18 = tested on: HOP-18
HOP-62 = tested on: HOP-62
HOP-92 = tested on: HOP-92
HT-29 = tested on: HT-29
IGROV-1 = tested on: IGROV-1
K562 = tested on: K562
KM12 = tested on: KM12
LOX IMVI = tested on: LOX IMVI
LXFL 529 = tested on: LXFL 529
M14 = tested on: M14
MOLT-4 = tested on: MOLT-4
Malme-3M = tested on: Malme-3M
NCI-H226 = tested on: NCI-H226
NCI-H23 = tested on: NCI-H23
NCI-H522 = tested on: NCI-H522
OVCAR-3 = tested on: OVCAR-3
OVCAR-4 = tested on: OVCAR-4
OVCAR-5 = tested on: OVCAR-5
OVCAR-8 = tested on: OVCAR-8
RPMI-8226 = tested on: RPMI-8226
RXF 393 = tested on: RXF 393
SF-268 = tested on: SF-268
SF-295 = tested on: SF-295
SF-539 = tested on: SF-539
SK-MEL-28 = tested on: SK-MEL-28
SK-MEL-5 = tested on: SK-MEL-5
SK-OV-3 = tested on: SK-OV-3
SN12C = tested on: SN12C
SNB-19 = tested on: SNB-19
SNB-75 = tested on: SNB-75
SNB-78 = tested on: SNB-78
SR = tested on: SR
SW-620 = tested on: SW-620
TK-10 = tested on: TK-10
U-251 = tested on: U-251
UACC-257 = tested on: UACC-257
UACC-62 = tested on: UACC-62
BT-549 = tested on: BT-549
DU-145 = tested on: DU-145
HCC 2998 = tested on: HCC 2998
HCT-15 = tested on: HCT-15
Hs-578T = tested on: Hs-578T
KM-20L2 = tested on: KM-20L2
M19-MEL = tested on: M19-MEL
MCF7 = tested on: MCF7
MDA-MB-231 = tested on: MDA-MB-231
MDA-MB-435 = tested on: MDA-MB-435
MDA-N = tested on: MDA-N
NCI-H460 = tested on: NCI-H460
NCI/ADR-RES = tested on: NCI/ADR-RES
PC-3 = tested on: PC-3
SK-MEL-2 = tested on: SK-MEL-2
T47D = tested on: T47D
UO-31 = tested on: UO-31

c1ccc([B-]23Oc4ccccc4[NH+]2c2ccccc2O3)cc1 (stereo not given)
GI50 (786-0): > 100 µM (inactive) | GI50 (A498): > 100 µM (inactive) | GI50 (A549): > 100 µM (inactive) | GI50 (ACHN): 75.7 µM (inactive) | GI50 (CAKI-1): > 100 µM (inactive) | GI50 (CCRF-CEM): 29.6 µM (inactive) | GI50 (COLO 205): 49 µM (inactive) | GI50 (DLD-1): 46 µM (inactive) | GI50 (DMS-114): 24.9 µM (inactive) | GI50 (DMS-273): 54.6 µM (inactive) | GI50 (EKVX): > 100 µM (inactive) | GI50 (HCT-116): > 100 µM (inactive) | GI50 (HL-60): 17.5 µM (inactive) | GI50 (HOP-18): > 100 µM (inactive) | GI50 (HOP-62): > 100 µM (inactive) | GI50 (HOP-92): > 100 µM (inactive) | GI50 (HT-29): > 100 µM (inactive) | GI50 (IGROV-1): > 100 µM (inactive) | GI50 (K562): 36.2 µM (inactive) | GI50 (KM12): 77.6 µM (inactive) | GI50 (LOX IMVI): 62.2 µM (inactive) | GI50 (LXFL 529): 63.8 µM (inactive) | GI50 (M14): > 100 µM (inactive) | GI50 (MOLT-4): 25.8 µM (inactive) | GI50 (Malme-3M): > 100 µM (inactive) | GI50 (NCI-H226): > 100 µM (inactive) | GI50 (NCI-H23): > 100 µM (inactive) | GI50 (NCI-H522): 16.2 µM (inactive) | GI50 (OVCAR-3): 56.6 µM (inactive) | GI50 (OVCAR-4): > 100 µM (inactive) | GI50 (OVCAR-5): > 100 µM (inactive) | GI50 (OVCAR-8): 57.7 µM (inactive) | GI50 (RPMI-8226): 23.9 µM (inactive) | GI50 (RXF 393): > 100 µM (inactive) | GI50 (SF-268): > 100 µM (inactive) | GI50 (SF-295): > 100 µM (inactive) | GI50 (SF-539): > 100 µM (inactive) | GI50 (SK-MEL-28): > 100 µM (inactive) | GI50 (SK-MEL-5): > 100 µM (inactive) | GI50 (SK-OV-3): > 100 µM (inactive) | GI50 (SN12C): > 100 µM (inactive) | GI50 (SNB-19): > 100 µM (inactive) | GI50 (SNB-75): > 100 µM (inactive) | GI50 (SNB-78): 77.4 µM (inactive) | GI50 (SR): 37 µM (inactive) | GI50 (SW-620): 33.2 µM (inactive) | GI50 (TK-10): 47.2 µM (inactive) | GI50 (U-251): > 100 µM (inactive) | GI50 (UACC-257): > 100 µM (inactive) | GI50 (UACC-62): > 100 µM (inactive)

O=C(/C=C/c1ccc(O)c(O)c1)c1ccc(O)cc1O [BUTEIN]
GI50 (786-0): 12 µM (inactive) | GI50 (A498): 17.7 µM (inactive) | GI50 (A549): 25 µM (inactive) | GI50 (ACHN): 18 µM (inactive) | GI50 (BT-549): 9.27 µM (inactive) | GI50 (CAKI-1): 10.5 µM (inactive) | GI50 (CCRF-CEM): 3.75 µM (inactive) | GI50 (COLO 205): 14.5 µM (inactive) | GI50 (DLD-1): 13.9 µM (inactive) | GI50 (DMS-114): 2.47 µM (inactive) | GI50 (DMS-273): 10.6 µM (inactive) | GI50 (DU-145): 9.1 µM (inactive) | GI50 (EKVX): 26.9 µM (inactive) | GI50 (HCC 2998): 17.1 µM (inactive) | GI50 (HCT-116): 13 µM (inactive) | GI50 (HCT-15): 16.3 µM | GI50 (HL-60): 3.29 µM (inactive) | GI50 (HOP-62): 17.4 µM (inactive) | GI50 (HOP-92): 15.7 µM (inactive) | GI50 (HT-29): 17.5 µM (inactive) | GI50 (Hs-578T): 19.4 µM (inactive) | GI50 (IGROV-1): 15.2 µM (inactive) | GI50 (K562): 4.27 µM (inactive) | GI50 (KM-20L2): 17.1 µM (inactive) | GI50 (KM12): 10.2 µM (inactive) | GI50 (LOX IMVI): 8.26 µM (inactive) | GI50 (M14): 16.3 µM (inactive) | GI50 (M19-MEL): 14 µM (inactive) | GI50 (MCF7): 3.98 µM (inactive) | GI50 (MDA-MB-231): 15.8 µM (inactive) | GI50 (MDA-MB-435): 9.08 µM (inactive) | GI50 (MDA-N): 6.14 µM (inactive) | GI50 (MOLT-4): 7.64 µM (inactive) | GI50 (Malme-3M): 13.9 µM (inactive) | GI50 (NCI-H226): 17.3 µM (inactive) | GI50 (NCI-H23): 16.7 µM (inactive) | GI50 (NCI-H460): 15.2 µM (inactive) | GI50 (NCI-H522): 2.25 µM (inactive) | GI50 (NCI/ADR-RES): 17.4 µM (inactive) | GI50 (OVCAR-3): 15.4 µM (inactive) | GI50 (OVCAR-4): 19.1 µM (inactive) | GI50 (OVCAR-5): 17.4 µM (inactive) | GI50 (OVCAR-8): 17.9 µM (inactive) | GI50 (PC-3): 19.6 µM (inactive) | GI50 (RPMI-8226): 10.5 µM (inactive) | GI50 (RXF 393): 12.2 µM (inactive) | GI50 (SF-268): 14.8 µM (inactive) | GI50 (SF-295): 22.3 µM (inactive) | GI50 (SF-539): 11.2 µM (inactive) | GI50 (SK-MEL-28): 14.5 µM (inactive) | GI50 (SK-MEL-2): 14.9 µM (inactive) | GI50 (SK-MEL-5): 11.6 µM (inactive) | GI50 (SK-OV-3): 15.7 µM (inactive) | GI50 (SN12C): 14.5 µM (inactive) | GI50 (SNB-19): 18.5 µM (inactive) | GI50 (SNB-75): 11.1 µM (inactive) | GI50 (SNB-78): 20.8 µM (inactive) | GI50 (SR): 7.1 µM (inactive) | GI50 (SW-620): 8.53 µM (inactive) | GI50 (T47D): 14.4 µM (inactive) | GI50 (TK-10): 19.4 µM (inactive) | GI50 (U-251): 9.25 µM (inactive) | GI50 (UACC-257): 15.6 µM (inactive) | GI50 (UACC-62): 16.9 µM (inactive) | GI50 (UO-31): 14 µM (inactive)
